Among the test systems are MDA-MB-435; BT-549 breast; PC-3 prostate; DU-145 prostate.
Common to all, as to assay: DTP human tumour cell line panel, 48 h

Results on 20 molecules are retold here after PubChem BioAssay (NCI).

The structures appear in SMILES notation. Where “and” joins values, the source holds several entries; their conditions need not be identical. Equal values may be shown once.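 A five-concentration, 48-hour dose response in 96-well plates underlies each endpoint, interpolated linearly between surrounding concentrations. Here, GI50 denotes the concentration required for 50% inhibition of growth. TGI: concentration producing complete growth inhibition.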

Broadly, the GI50 is the concentration at which growth is held to half of that of the control. A word on the TGI: it is the concentration at which net growth stops. A lower TGI goes with greater sensitivity of the cells. With `CCOP(=O)(OCC)C(NC(c1ccccc1)c1ccccc1)c1ccccc1` (configuration not stated), the GI50 in the assay with MDA-MB-435 was 1.36 µM; in the assay on BT-549 breast, 15.4 µM; in the assay on PC-3 prostate, 12 µM; in the assay on DU-145 prostate it was 15 µM. Besides, the TGI came out at 8.89 µM in the assay on MDA-MB-435, 34.6 µM in the assay with BT-549 breast, 27.1 µM in the assay with PC-3 prostate and 30 µM in the assay on DU-145 prostate.
For the molecule `CC1=C([Se]CC(OC(=O)CC[Se]c2ccccc2)C(=O)NCCCCCC(=O)OCc2ccccc2)C(=O)c2ccccc2C1=O` (configuration not stated), the GI50 with MDA-MB-435 is 2.45 µM; in the assay on BT-549 breast it was 2.99 µM; with PC-3 prostate, 2.26 µM; in the assay with DU-145 prostate it was 3.64 µM. Also, the TGI turned out to be 7.45 µM in the assay with MDA-MB-435, 12.2 µM in the assay on BT-549 breast, 12.4 µM in the assay on PC-3 prostate and 11.4 µM in the assay with DU-145 prostate.
Consider `Cc1cn(C2CC(F)C(CO)O2)c(=O)[nH]c1=O` (configuration not stated), for which the GI50 in the assay with MDA-MB-435, in the assay with BT-549 breast, in the assay on PC-3 prostate and in the assay with DU-145 prostate was > 100 µM throughout. Moreover, the TGI in the assay on MDA-MB-435, in the assay on BT-549 breast, in the assay with PC-3 prostate and in the assay with DU-145 prostate was > 100 µM in each case.
For the molecule `COc1cc2oc(=O)ccc2cc1C1OC(=O)C2OC21C` (configuration not stated), the TGI with MDA-MB-435, in the assay with PC-3 prostate and in the assay with DU-145 prostate was > 100 µM throughout.
`CC(=O)O[C@H]1C(=O)[C@@]2(C)C(C(OC(=O)c3ccccc3)[C@]3(O)CC(OC(=O)[C@H](OC(=O)CCC(=O)O)C(NC(=O)c4ccccc4)c4ccccc4)C(C)=C1C3(C)C)C1(OC(C)=O)COC1C[C@@H]2OC(=O)CCC(=O)O` (some centres not stated): in the assay on MDA-MB-435, the GI50 is 0.189 µM and the TGI came to 0.495 µM. Further, the TGI with PC-3 prostate is > 100 µM.
For the molecule `O=c1c2ccccc2c2ccccc2c(=O)n1-c1cc2c3ccccc3ccc2c2ccccc12`, the TGI with MDA-MB-435, in the assay on BT-549 breast, with PC-3 prostate and in the assay with DU-145 prostate was > 100 µM each time.
As for `C/C(=N/S(=O)(=O)c1ccc(Cl)c(Cl)c1)OCC(C)(C)C`, the TGI with MDA-MB-435, in the assay on BT-549 breast, in the assay with PC-3 prostate and in the assay on DU-145 prostate was > 100 µM each time.
As to `N#CC(=S)Nc1cccc(Cl)c1`, the TGI in the assay with MDA-MB-435, in the assay with BT-549 breast, in the assay with PC-3 prostate and in the assay on DU-145 prostate was > 100 µM throughout.
For `CC12CCC3C(CC=C4CC(O)CCC43C)C1C/C(=C\N1CCCC1)C2=O` (configuration not stated), the GI50 is > 100 µM in the assay with MDA-MB-435, 41 µM in the assay on BT-549 breast, 55 µM in the assay on PC-3 prostate and > 100 µM in the assay with DU-145 prostate. The TGI in the assay on MDA-MB-435, in the assay with BT-549 breast, in the assay with PC-3 prostate and in the assay on DU-145 prostate was > 100 µM in each case.
As for `COc1ccc(/C=C/C(=O)c2cc3c(N)c(C(=O)Nc4ccccc4Cl)sc3nc2C)cc1`, the GI50 in the assay on BT-549 breast was 7.24 µM; with PC-3 prostate, 2.92 µM; in the assay on DU-145 prostate, 2.78 µM. The TGI in the assay with BT-549 breast was 32 µM; with PC-3 prostate, > 50 µM; in the assay on DU-145 prostate it was > 50 µM.
For `C[C@]12CCC3[C@@H](C[C@@H]4SC(Nc5ccccc5)=N[C@@]45CC(=O)CC[C@]35C)[C@@H]1CCC2=O` (some centres not stated), the GI50 with MDA-MB-435 is 3.48 µM; in the assay with BT-549 breast, 4.58 µM; with PC-3 prostate, 5.52 µM; in the assay on DU-145 prostate, 4.34 µM. In addition, the TGI is > 100 µM in the assay with MDA-MB-435, 38.9 µM in the assay on BT-549 breast, 63.7 µM in the assay on PC-3 prostate and 40.9 µM in the assay on DU-145 prostate.
For the molecule `OCc1cn(Cc2cccc(Cl)c2)c2ccccc12`, the GI50 was 14.8 µM in the assay with MDA-MB-435, 6.75 µM in the assay with BT-549 breast, 15.5 µM in the assay on PC-3 prostate and 11.6 µM in the assay with DU-145 prostate. Also, the TGI in the assay on MDA-MB-435 stood at 35.5 µM; in the assay with BT-549 breast it was 23.1 µM; in the assay with PC-3 prostate, 39.9 µM; in the assay with DU-145 prostate, 47.8 µM.
As for `O=C(/C=C/c1cccnc1)NCCCCC1CCN(C(=O)c2ccccc2)CC1`, the GI50 is < 0.01 µM in the assay with MDA-MB-435; 6.11 µM and 19.6 µM in the assay on BT-549 breast; < 0.01 µM in the assay with PC-3 prostate; 0.0234 µM and < 0.0315 µM in the assay with DU-145 prostate. In addition, the total growth inhibition concentration (TGI) in the assay with MDA-MB-435, in the assay with BT-549 breast, in the assay on PC-3 prostate and in the assay on DU-145 prostate was > 100 µM each time.
On to `N[C@@H](Cc1c[nH]c2ccccc12)C(=O)NC1CCN(C(=O)c2c[nH]c3ccccc23)CC1`, for which the GI50 is > 100 µM in the assay on MDA-MB-435, > 100 µM in the assay on BT-549 breast, > 100 µM in the assay with PC-3 prostate and 72.2 µM with DU-145 prostate. In addition, the TGI in the assay on MDA-MB-435, in the assay with BT-549 breast, with PC-3 prostate and in the assay on DU-145 prostate was > 100 µM each time.
With `CC(=O)OC[C@H]1O[C@@H](n2ccc(=O)[nH]c2=O)[C@H](OC(C)=O)[C@@H]1OC(C)=O`, the GI50 with MDA-MB-435, in the assay on BT-549 breast, in the assay with PC-3 prostate and with DU-145 prostate was > 100 µM each time. Also, the TGI in the assay on MDA-MB-435, in the assay on BT-549 breast, with PC-3 prostate and in the assay on DU-145 prostate was > 100 µM each time.
Turning to `Cc1c(C#N)cccc1-c1cc(-c2cn(Cc3cccc(C(C)(C)O)n3)nn2)nc(N)n1`, the GI50 is 26.8 µM in the assay with MDA-MB-435, 14.9 µM in the assay on BT-549 breast, 17.7 µM in the assay with PC-3 prostate and 37.1 µM in the assay with DU-145 prostate. In addition, the TGI with MDA-MB-435 was > 100 µM; in the assay on BT-549 breast, 69.1 µM; in the assay with PC-3 prostate it was 87.5 µM; in the assay with DU-145 prostate, > 100 µM.
For `CC(=O)Nc1ccc(/C=C/[N+](=O)[O-])cc1`, the TGI in the assay with MDA-MB-435 is 9.23 µM; with BT-549 breast it was 12.4 µM; in the assay with PC-3 prostate, 16.7 µM; with DU-145 prostate, > 43.4 µM.
With `COP(=O)(OC)C(NC(c1ccccc1)c1ccccc1)c1ccc2c(c1)OCO2` (configuration not stated), the GI50 with MDA-MB-435 is 33.3 µM; in the assay with BT-549 breast, 20.6 µM; in the assay with PC-3 prostate it was 16.4 µM; in the assay with DU-145 prostate it was 26.6 µM. Further, the TGI in the assay on MDA-MB-435 was 94.8 µM; in the assay on BT-549 breast it was 38.8 µM; in the assay with PC-3 prostate, 66.3 µM; in the assay with DU-145 prostate it was 60.5 µM.
As to `CCN(CC)c1ccc(/C=C\c2cc(C)c3cc(C)ccc3n2)cc1`, the GI50 in the assay on MDA-MB-435 was 2.1 µM; with BT-549 breast, 5.07 µM; with PC-3 prostate, 3.69 µM; with DU-145 prostate, 9.08 µM. In addition, the TGI was > 100 µM in the assay on MDA-MB-435, > 100 µM with BT-549 breast, 81.1 µM with PC-3 prostate and > 100 µM in the assay on DU-145 prostate.
Regarding `O=C(O)c1ccc2c(c1)Cc1cc([N+](=O)[O-])ccc1-2`, the TGI in the assay with MDA-MB-435, in the assay on BT-549 breast and with DU-145 prostate was > 100 µM throughout.
